Molecular target: T1, Recombinant human HSD17B13 enzyme (Homo sapiens, UniProt Q7Z5P4)
T1 sequence (Q7Z5P4 20-300): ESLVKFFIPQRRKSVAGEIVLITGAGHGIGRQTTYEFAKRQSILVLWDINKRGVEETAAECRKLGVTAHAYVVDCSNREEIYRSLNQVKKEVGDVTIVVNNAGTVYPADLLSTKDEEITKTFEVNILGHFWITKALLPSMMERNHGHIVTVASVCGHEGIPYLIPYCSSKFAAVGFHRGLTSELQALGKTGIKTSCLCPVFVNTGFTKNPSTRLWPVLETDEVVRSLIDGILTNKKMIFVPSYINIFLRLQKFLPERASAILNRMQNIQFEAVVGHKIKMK
Assay: HSD17b13 NAD(P)H-Glo biochemical assay
Details: 50 uM estradiol, 1 mM NAD+, NAD(P)H-Glo luminescence; read-out: HSD17β13 IC50
How it was run: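 Luminescent NAD(P)H-Glo read-out, taken after 1 hour at RT, measured cofactor reduction. Substrate and cofactor were estradiol at 50 uM and NAD+ at 1 mM final, reacted with the recombinant human enzyme for 3 hours at 37° C in 20 mM Tris pH7.4, 0.002% Tween-20, 0.02% BSA. Compound was pre-incubated with enzyme for 20 minutes at RT.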

Structure (SMILES) | IC50
Cn1nc(-c2cc(C(F)(F)F)c(F)c(O)c2F)c2cnc(N3CCOC(C)(C)C3)cc21 [Compound 9.33, 3-(6-(2,2-Dimethylmorpholino)-1-methyl-1H-pyrazolo[4,3-c]pyridin-3-yl)-2,6-difluoro-5-(trifluoromethyl)phenol] | < 100 nM
CC(C)n1nc(-c2cc(C(F)(F)F)c(F)c(O)c2F)c2cnc(N3CCOCC34CC4)cc21 [Compound 9.34, 2,6-Difluoro-3-(1-isopropyl-6-(7-oxa-4-azaspiro[2.5]octan-4-yl)-1H-pyrazolo[4,3-c]pyridin-3-yl)-5-(trifluoromethyl)phenol] | < 100 nM
Cn1nc(-c2cc(C(F)(F)F)c(F)c(O)c2F)c2cnc(N3CCOCC34CCC4)cc21 [Compound 9.35, 2,6-Difluoro-3-(1-methyl-6-(8-oxa-5-azaspiro[3.5]nonan-5-yl)-1H-pyrazolo[4,3-c]pyridin-3-yl)-5-(trifluoromethyl)phenol] | < 100 nM
CO[C@H]1C[C@@H](N(C)c2cc3c(cn2)c(-c2cc(C(F)(F)F)c(F)c(O)c2F)nn3C)C1 [Compound 9.36, 2,6-Difluoro-3-(6-((cis-3-methoxycyclobutyl)(methyl)amino)-1-methyl-1H-pyrazolo[4,3-c]pyridin-3-yl)-5-(trifluoromethyl)phenol] | < 100 nM
CCn1nc(-c2cc(C(F)(F)F)c(F)c(O)c2F)c2cnc(N3CCOCC34CC4)cc21 [Compound 9.37, 3-(1-Ethyl-6-(7-oxa-4-azaspiro[2.5]octan-4-yl)-1H-pyrazolo[4,3-c]pyridin-3-yl)-2,6-difluoro-5-(trifluoromethyl)phenol] | < 100 nM
Cn1nc(-c2cc(C(F)(F)F)c(F)c(O)c2F)c2cnc(N3CCOCC3C3CC3)cc21 (stereo not drawn) [Compound 9.38, 3-(6-(3-Cyclopropylmorpholino)-1-methyl-1H-pyrazolo[4,3-c]pyridin-3-yl)-2,6-difluoro-5-(trifluoromethyl)phenol] | < 100 nM
CN(c1ncc2c(-c3cc(C(F)(F)F)c(F)c(O)c3F)nn(C)c2n1)C1CCOCC1 [Compound 9.39, 2,6-Difluoro-3-(1-methyl-6-(methyl(tetrahydro-2H-pyran-4-yl)amino)-1H-pyrazolo[3,4-d]pyrimidin-3-yl)-5-(trifluoromethyl)phenol] | < 100 nM
CN(c1ccc2c(-c3cc(C(F)(F)F)c(F)c(O)c3F)nn(C)c2n1)C1CCOCC1 [Compound 9.40, 2,6-Difluoro-3-(1-methyl-6-(methyl(tetrahydro-2H-pyran-4-yl)amino)-1H-pyrazolo[3,4-b]pyridin-3-yl)-5-(trifluoromethyl)phenol] | < 100 nM
Cn1nc(-c2cc(C(F)(F)F)c(F)c(O)c2F)c2ccc(N3CCOCC34CCC4)nc21 [Compound 9.41, 2,6-Difluoro-3-(1-methyl-6-(8-oxa-5-azaspiro[3.5]nonan-5-yl)-1H-pyrazolo[3,4-b]pyridin-3-yl)-5-(trifluoromethyl)phenol] | < 100 nM
Cn1nc(-c2cc(C(F)(F)F)c(F)c(O)c2F)c2cnc(N3CC4CCC3CC4)cc21 [Compound 9.42, 3-(6-(2-Azabicyclo[2.2.2]octan-2-yl)-1-methyl-1H-pyrazolo[4,3-c]pyridin-3-yl)-2,6-difluoro-5-(trifluoromethyl)phenol] | < 100 nM
Cn1nc(-c2cc(C(F)(F)F)c(F)c(O)c2F)c2cnc(N3CCNC(=O)C34CC4)cc21 [Compound 9.43, 4-(3-(2,4-Difluoro-3-hydroxy-5-(trifluoromethyl)phenyl)-1-methyl-1H-pyrazolo[4,3-c]pyridin-6-yl)-4,7-diazaspiro[2.5]octan-8-one] | < 100 nM
CN(c1cc2c(cn1)c(-c1cc(C(F)(F)F)c(F)c(O)c1F)nn2C)C1CCCOC1 (stereo not drawn) [Compound 9.44, 2,6-Difluoro-3-(1-methyl-6-(methyl(tetrahydro-2H-pyran-3-yl)amino)-1H-pyrazolo[4,3-c]pyridin-3-yl)-5-(trifluoromethyl)phenol] | < 100 nM
CCC1COCCN1c1cc2c(cn1)c(-c1cc(C(F)(F)F)c(F)c(O)c1F)nn2C (stereo not drawn) [Compound 9.45, 3-(6-(3-Ethylmorpholino)-1-methyl-1H-pyrazolo[4,3-c]pyridin-3-yl)-2,6-difluoro-5-(trifluoromethyl)phenol] | < 100 nM
CCN(c1cc2c(cn1)c(-c1cc(C(F)(F)F)c(F)c(O)c1F)nn2C)C1CCC1 [Compound 9.46, 3-(6-(Cyclobutyl(ethyl)amino)-1-methyl-1H-pyrazolo[4,3-c]pyridin-3-yl)-2,6-difluoro-5-(trifluoromethyl)phenol] | < 100 nM
COC1CCN(c2cc3c(cn2)c(-c2cc(C(F)(F)F)c(F)c(O)c2F)nn3C)CC1 [Compound 9.47, 2,6-Difluoro-3-(6-(4-methoxypiperidin-1-yl)-1-methyl-1H-pyrazolo[4,3-c]pyridin-3-yl)-5-(trifluoromethyl)phenol] | < 100 nM
Cn1nc(-c2cc(C(F)(F)F)c(F)c(O)c2F)c2cnc(N3CCOC4(CC4)C3)cc21 [Compound 9.48, 2,6-Difluoro-3-(1-methyl-6-(4-oxa-7-azaspiro[2.5]octan-7-yl)-1H-pyrazolo[4,3-c]pyridin-3-yl)-5-(trifluoromethyl)phenol] | < 100 nM
Cn1nc(-c2cc(C(F)(F)F)c(F)c(O)c2F)c2cnc(N3CCC(O)CC34CC4)cc21 (stereo not drawn) [Compound 9.49, 4-(3-(2,4-Difluoro-3-hydroxy-5-(trifluoromethyl)phenyl)-1-methyl-1H-pyrazolo[4,3-c]pyridin-6-yl)-4-azaspiro [2.5]octan-7-ol] | < 100 nM
COCCN(c1cc2c(cn1)c(-c1cc(C(F)(F)F)c(F)c(O)c1F)nn2C)C1CCOCC1 [Compound 9.50, 2,6-Difluoro-3-(6-((2-methoxyethyl)(tetrahydro-2H-pyran-4-yl)amino)-1-methyl-1H-pyrazolo[4,3-c]pyridin-3-yl)-5-(trifluoromethyl)phenol] | < 100 nM
Cn1nc(-c2cc(C(F)(F)F)c(F)c(O)c2F)c2cnc(N(CC3CC3)C3CCC3)cc21 [Compound 9.51, 3-(6-(Cyclobutyl(cyclopropylmethyl)amino)-1-methyl-1H-pyrazolo[4,3-c]pyridin-3-yl)-2,6-difluoro-5-(trifluoromethyl)phenol] | < 100 nM
CC(C)C1COCCN1c1cc2c(cn1)c(-c1cc(C(F)(F)F)c(F)c(O)c1F)nn2C (stereo not drawn) [Compound 9.52, 2,6-Difluoro-3-(6-(3-isopropylmorpholino)-1-methyl-1H-pyrazolo[4,3-c]pyridin-3-yl)-5-(trifluoromethyl)phenol] | < 100 nM

Now from value to compound:

IC50 | Structure (SMILES)
100 to 1000 nM | Cn1nc(-c2cc(C(F)(F)F)c(F)c(O)c2F)c2cnc(N3CCNC4(CC4)C3=O)cc21 [Compound 9.53, 7-(3-(2,4-Difluoro-3-hydroxy-5-(trifluoromethyl)phenyl)-1-methyl-1H-pyrazolo[4,3-c]pyridin-6-yl)-4,7-diazaspiro[2.5]octan-8-one]
< 100 nM | Oc1c(F)c(-c2nn(C3CCOCC3)c3cc(N4CCOCC45CC5)ncc23)cc(C(F)(F)F)c1F [Compound 9.54, 3-(6-(7-Oxa-4-azaspiro[2.5]octan-4-yl)-1-(tetrahydro-2H-pyran-4-yl)-1H-pyrazolo[4,3-c]pyridin-3-yl)-2,6-difluoro-5-(trifluoromethyl)phenol]
< 100 nM | Oc1c(F)c(-c2nn(C3COC3)c3cc(N4CCOCC45CC5)ncc23)cc(C(F)(F)F)c1F [Compound 9.55, 2,6-Difluoro-3-(1-(oxetan-3-yl)-6-(7-oxa-4-azaspiro [2.5]octan-4-yl)-1H-pyrazolo[4,3-c]pyridin-3-yl)-5-(trifluoromethyl)phenol]
< 100 nM | Oc1c(F)c(-c2nn(C3CCC3)c3cc(N4CCOCC45CC5)ncc23)cc(C(F)(F)F)c1F [Compound 9.56, 3-(1-Cyclobutyl-6-(7-oxa-4-azaspiro[2.5]octan-4-yl)-1H-pyrazolo[4,3-c]pyridin-3-yl)-2,6-difluoro-5-(trifluoromethyl)phenol]
< 100 nM | Cn1nc(-c2cc(C(F)(F)F)c(F)c(O)c2F)c2cnc(N3CCOCC3)cc21 [Compound 9.57, 2,6-Difluoro-3-(1-methyl-6-morpholino-1H-pyrazolo[4,3-c]pyridin-3-yl)-5-(trifluoromethyl)phenol]
< 100 nM | Cn1nc(-c2cc(C(F)(F)F)c(F)c(O)c2F)c2cnc(N3CCCOCC3)cc21 [Compound 9.58, 2,6-Difluoro-3-(1-methyl-6-(1,4-oxazepan-4-yl)-1H-pyrazolo[4,3-c]pyridin-3-yl)-5-(trifluoromethyl)phenol]
< 100 nM | Cn1nc(-c2cc(C(F)(F)F)c(F)c(O)c2F)c2cnc(N3CCCCC34CCC4)cc21 [Compound 9.59, 2,6-Difluoro-3-(1-methyl-6-(5-azaspiro[3.5]nonan-5-yl)-1H-pyrazolo[4,3-c]pyridin-3-yl)-5-(trifluoromethyl)phenol]
< 100 nM | COCC1COCCN1c1cc2c(cn1)c(-c1cc(C(F)(F)F)c(F)c(O)c1F)nn2C (stereo not drawn) [Compound 9.60, 2,6-Difluoro-3-(6-(3-(methoxymethyl)morpholino)-1-methyl-1H-pyrazolo[4,3-c]pyridin-3-yl)-5-(trifluoromethyl)phenol]
< 100 nM | Cn1nc(-c2cc(C(F)(F)F)c(F)c(O)c2F)c2cnc(N3CCOCC3C3(C)CC3)cc21 (stereo not drawn) [Compound 9.61, 2,6-Difluoro-3-(1-methyl-6-(3-(1-methylcyclopropyl)morpholino)-1H-pyrazolo[4,3-c]pyridin-3-yl)-5-(trifluoromethyl)phenol]
100 to 1000 nM | CC(=O)N1CCN(c2cc3c(cn2)c(-c2cc(C(F)(F)F)c(F)c(O)c2F)nn3C)CC1 [Compound 9.62, 1-(4-(3-(2,4-Difluoro-3-hydroxy-5-(trifluoromethyl)phenyl)-1-methyl-1H-pyrazolo[4,3-c]pyridin-6-yl)piperazin-1-yl)ethanone]

Source: US20240083861A1, “HSD17B13 INHIBITORS AND USES THEREOF” (FL2022-001, Inc., priority 2020, published 2024)
